Measurements reported in US20210278391A1, “COMPOSITIONS AND METHODS FOR TREATING CARDIOVASCULAR AND METABOLIC CONDITIONS” (The Regents of the University of California, priority 2017, published 2021).

How the values were obtained:
ob/ob mice = experiment: Glucose and insulin tolerance, plasma insulin, food intake, body weight in ob/ob mice treated with BT2; assay type: in vivo, mouse; conditions: BT2 40 mg/kg/day
Experimental: (§1) Animals were euthanized using carbon dioxide asphyxiation followed by cervical dislocation and then dissected. Blood was harvested by cardiac puncture and centrifuged to isolate plasma which was stored at −80° C. Acidified citrate dextrose was used as an anticoagulant. Immediately after blood collection, heart, liver, kidneys, and both hind leg quadriceps muscles were removed and snap frozen in liquid nitrogen.
(§2) Mice were fasted for 6 hours. For insulin tolerance test, mice were injected (intraperitoneal) with insulin (0.75 U/kg body weight). For glucose tolerance test, mice were injected intraperitoneally with D-glucose (2 g/kg body weight). Experiments were performed between 14:00 and 16:00. Blood was drawn 0, 15, 30, 60, and 120 min after insulin or glucose administration. Blood glucose concentrations were measured through tail bleeding before and at the times indicated after injection. Blood glucose was measured using a portable glucometer (Johnson&Johnson). Plasma insulin and TNFα concentrations were measured by Milliplex Multiplex Immunoassay Kits MMHMAG-44K-14 (Merck Millipore, Darmstadt, Germany).

[1] = Cardiac BCAA and BCKA assay post-TAC; assay type: in vivo, mouse; conditions: post-TAC heart, BT2 6 weeks
Experimental: BCAA and BCKA concentration in mouse heart tissue were determined by mass spectrometer using the following transition s: KIC 203.1 to 161.1 (retention time: 2.91 min); KIV 189.145 to 119.2 (retention time 2.84 min); KMV 203.065 to 174.2 (retention time 2.99 min); [^13C] KIV 194.109 to 120.1 (retention time: 2.84 min). Val 174.1/72.1 (retention time 3.2 min), Leu 188.1/86.1 (retention time 5.9 min), Ile 188.2/86.1 (retention time 5.7 min).

BCKD = BCKD activity in tissues of high-fat-diet-induced obese (DIO) mice treated with BT2; assay type: in vivo, mouse; conditions: BT2 40 mg/kg/day 8 weeks oral gavage
Experimental: as §1
Assays for the BCKD activity were carried out as prescribed previously (Tso et al. (2014), supra). Briefly, frozen tissues were thawed and homogenized in a homogenizing buffer (30 mM KPi, pH 7.5, 3 mM EDTA, 5 mM DTT, 1 mM KIC, 3% fetal bovine serum, 5% Triton X-100, and 1 μM leupeptin). Samples were spun at 25,000×g and supernatants were collected. Diluted samples were placed in 24-well assay plates with assay buffer (30 mMKPi, pH7.5, 0.4 mM CoA, 3 mM NAD, 5% fetal bovine serum, 2 mM thiamine diphosphate, 2 mM MgCl2, and 65 μg of human E3). Keto [1-^14C] isovalerate substrate was added and assay plates were incubated at 37° C. for 30 min. 20% TCA solution was added to stop the reactions. Assay plates were incubated further at 37° C. for 45 min. ^14CO2 trapped on 2 M NaOH soaked filter wicks was counted in a liquid scintillation counter.

[2] = Plasma BCAA/BCKA in DIO mice treated with BT2; assay type: in vivo, mouse; conditions: BT2 40 mg/kg/day 8 weeks
Experimental: as §1
(§3) The endogenous signal from blank plasma was subtracted from each point on the standard curve, and the data were plotted in GraphPad Prism. BCAA concentrations in treated samples were determined based on this standard curve.

BCKD subunit E1α = experiment: Western blot of phosphorylated E1α and BCKDK in heart post-TAC; assay type: in vivo, mouse
Experimental: Proteins from heart tissue were harvested in buffer (50 mM HEPES [pH7.4], 150 mM NaCl, 1% NP-40, 1 mM EDTA, 1 mM EGTA, 1 mM glycerophosphate, 2.5 mM sodium pyrophosphate 1 mM Na3VO4, 20 mM NaF, 1 mM phenylmethylsulfonyl fluoride, 1 μg/mL of aprotinin, leupeptin, and pepstatin). Samples were separated on 4-12% Bis-Tris gels (Invitrogen), and transferred onto a nitrocellulose blot (Amersham). The blot was probed with the indicated primary antibodies. Protein signals were detected using HRP conjugated secondary antibodies and enhanced chemiluminescence (ECL) western blotting detection regents (Pierce). Rabbit polyclonal antisera against the E1α subunits of BCKD complex and phosphor-E1α antibodies were purchased from Abcam. PP2Cm antibody was generated in the lab.

[3] = system: high fat diet (HFD)-induced obese (DIO) mice; experiment: Glucose and insulin tolerance, plasma insulin in DIO mice treated with BT2; assay type: in vivo, mouse; conditions: BT2 40 mg/kg/day 8 weeks
Experimental: as §1, §2

[4] = system: pressure-overloaded mouse heart; experiment: TAC heart failure model with preexisting dysfunction, BT2 from 2 weeks post-TAC for 6 weeks, echocardiography and survival; assay type: in vivo
Experimental: In mice, transverse aortic constriction (TAC) was performed as described (Lee et al. (2011) Circulation Research 109:1332-1341) in anesthetized (pentobarbital 60 mg/kg, IP) and ventilated mice (age 12-14 weeks) to induce hypertrophy and heart failure. After left anterolateral thoracotomy with blunt dissection through the intercostal muscles, aortic constriction was induced by ligating the transverse aorta around a 27½-gauge blunt needle using 6-0 silk suture. The needle was subsequently removed. Sham-operated mice underwent a similar surgical procedure without constriction of the aorta. All mice were maintained in the same environment with regular lab chow and water ad libitum. At the end of the experiments, animals were euthanized and the hearts and lungs were removed and weighed. Hearts were dissected and tissues were either immediately immersed into 4% buffered formaldehyde or quickly frozen in liquid nitrogen for further experiments.

[5] = Plasma BCAA/BCKA in ob/ob mice treated with BT2; assay type: in vivo, mouse; conditions: BT2 40 mg/kg/day
Experimental: as §1, §3

[6] = after 5 weeks post-TAC (3 weeks post-treatment), speckle tracking
[7] = by 2 weeks of BT2 treatment (4 weeks post-TAC)

O=C(O)c1sc2cc(Cl)ccc2c1Cl [BT2, 3,6-dichlorobenzo[b]thiophene-2-carboxylic acid]
glucose tolerance (ob/ob mice): significantly improved | hyperinsulinemia (ob/ob mice): attenuation | insulin sensitivity (ob/ob mice): significantly improved | cardiac intra-tissue concentrations of BCAA and BCKA [1]: significant reduced | BCKD activity in heart, muscle liver and kidney (BCKD): augments | plasma BCAA/BCKA levels [2]: lowers | cardiac BCAA catabolic activities post-TAC (BCKD subunit E1α; intragastric, six weeks): enhanced | BCKDK mediated E1α phosphorylation (BCKD subunit E1α; post-TAC heart, BT2 40 mg/kg/day 6 weeks vs vehicle): significantly reduced | BCKDK protein expression (BCKD subunit E1α; post-TAC heart, BT2 vs vehicle): insignificant effect | glucose tolerance [3]: improved | hyperinsulinemia [3]: improved | insulin sensitivity [3]: improved | longitudinal early diastolic strain rate (SRe) ([4]; 5 weeks post-TAC): remarkably improved | chamber size (ΔLVIDs, ΔLV Vols) ([4]; BT2 treated mouse hearts post-TAC): stable maintenance | myocardial strain [4, 6]: significantly improved | myocardial strain rate [4, 6]: significantly improved | increase of EF from baseline (week 2) [4, 7]: 6.0±3.4 points | increase of FS from baseline (week 2) [4, 7]: 3.5±1.9 points | systolic dysfunction ([4]; continuation of BT2 for additional 4 weeks): additional alleviations | beneficial effect on SRe at radial circumferential planes ([4]; during the treatment period): dispersity | mouse survival ([4]; from two weeks after treatment): improved | systolic velocity and displacement in longitudinal and radial planes ([4]; post-TAC): increase | systolic function ([4]; pressure-overloaded mouse heart, six weeks treatment): preserved | pressure-overload-induced cardiac structural remodeling ([4]; six weeks treatment): alleviated | magnitudes of reductions in plasma BCKA concentrations (vs BCAA) [5]: far more pronounced | plasma BCAA levels [5]: significantly lowered
